Reference: patent US20260232767A1, “INTERLEUKIN-23 RECEPTOR ANTAGONIST PEPTIDES FOR USE IN THE TREATMENT OF PSORIASIS” (Janssen Pharmaceutica NV, priority 2023, published 2026)

Tested on: subjects with moderate-to-severe plaque psoriasis
Assay: PASI response, Example 2 long-term extension to Week 52
Type: in vivo, human
Conditions: for Change from Baseline in PASI Total Score, LSMean: MMRM model
Description: Described below is a multicenter, long-term extension (LTE), double-blind, dose-ranging, parallel group interventional study in participants from Example 1 to evaluate the long-term efficacy and safety of the hydrochloride salt of the compound of Formula (I) for the treatment of moderate-to-severe plaque psoriasis. Patients from Example 1 continued to receive the same dose of the compound of Formula (I) for an additional 36-week treatment period with a 4-week safety follow up period after the last administration of the compound of Formula (I). Patients randomized to placebo in Example 1 received the compound of Formula (I) at a dose of 100 mg QD starting at Week 16 of Example 1 (FIG. 21).
The primary efficacy endpoint is the proportion of participants achieving a PASI 75 response at Week 52, defined as at least a […] reduction from baseline PASI of Example 1. For primary analysis, composite strategy (non-responder imputation) was applied to address intercurrent event #1 (Discontinuation of study intervention due to lack of efficacy or due to an AE of worsening of psoriasis) and […] (initiation of a protocol-prohibited medication or therapy that could improve psoriasis); treatment policy strategy (observed data) was applied to intercurrent event #3 (Discontinuation of study intervention due to other reasons). Participants with missing data after application of ICEs are considered as non-responders.
Since there was no control arm (after week 16), in this primary analysis, only the proportion of participants who achieved a PASI75 response and its […] confidence interval at Week 52 were summarized for each intervention group.

[1] = 50 mg QD, Week 52, non-responder imputation

CC(=O)NCCCC[C@@H]1NC(=O)[C@H](Cc2c[nH]c3c(C)cccc23)NC(=O)[C@H]([C@@H](C)O)NC(=O)[C@H](CC(N)=O)NC(=O)[C@@H](NC(C)=O)C(C)(C)SSC(C)(C)[C@@H](C(=O)N[C@@H](Cc2ccc(OCCN)cc2)C(=O)N[C@@H](Cc2ccc3ccccc3c2)C(=O)NC2(C(=O)N[C@@H](CCC(=O)O)C(=O)N[C@@H](CC(N)=O)C(=O)N[C@@H](Cc3cccnc3)C(=O)N(C)CC(N)=O)CCOCC2)NC1=O [IL-23 receptor antagonist peptide, Ac-[Pen]*-N-T-[W(7-Me)]-[Lys(Ac)]-[Pen]*-Phe[4-(2-aminoethoxy)]-[2-Nal]-[THP]-E-N-[3-Pal]-Sarc-NH2 (*[Pen]-[Pen]* formdisulfidebond)]
Change from Baseline in PASI Total Score, Median (50 mg QD, Week 16): −14.90 | Change from Baseline in PASI Total Score, LSMean (50 mg QD, Week 16): −14.4 | Change from Baseline in PASI Total Score, Mean (50 mg QD, Week 20): −14.92 | Change from Baseline in PASI Total Score, Median (50 mg QD, Week 20): −15.10 | Change from Baseline in PASI Total Score, LSMean (50 mg QD, Week 20): −14.7 | Change from Baseline in PASI Total Score, Mean (50 mg QD, Week 24): −15.10 | Change from Baseline in PASI Total Score, Median (50 mg QD, Week 24): −15.70 | Change from Baseline in PASI Total Score, LSMean (50 mg QD, Week 24): −14.9 | Change from Baseline in PASI Total Score, Mean (50 mg QD, Week 28): −14.75 | Change from Baseline in PASI Total Score, Median (50 mg QD, Week 28): −15.50 | Change from Baseline in PASI Total Score, LSMean (50 mg QD, Week 28): −14.6 | Change from Baseline in PASI Total Score, Mean (50 mg QD, Week 32): −14.88 | Change from Baseline in PASI Total Score, Median (50 mg QD, Week 32): −15.80 | Change from Baseline in PASI Total Score, LSMean (50 mg QD, Week 32): −14.6 | Change from Baseline in PASI Total Score, Mean (50 mg QD, Week 40): −14.33 | Change from Baseline in PASI Total Score, Median (50 mg QD, Week 40): −15.45 | Change from Baseline in PASI Total Score, LSMean (50 mg QD, Week 40): −14.2 | Change from Baseline in PASI Total Score, Mean (50 mg QD, Week 52): −14.45 | Change from Baseline in PASI Total Score, Median (50 mg QD, Week 52): −15.80 | Subjects achieving PASI 75 (50 mg QD, Week 52): 30 (69.8%) | Change from Baseline in PASI Total Score, LSMean (50 mg QD, Week 52): −14.3 | Subjects achieving 100% Improvement at Week 52 (PASI) [1]: (20.9%) | Subjects achieving ≥75% Improvement at Week 52 (PASI 75 Response) [1]: 30 (69.8%) | Subjects achieving ≥90% Improvement at Week 52 (PASI) [1]: (41.9%) | Change from Baseline in PASI Total Score, Mean (100 mg BID, Week 1): −3.25 | Change from Baseline in PASI Total Score, Median (100 mg BID, Week 1): −1.20 | Change from Baseline in PASI Total Score, LSMean (100 mg BID, Week 1): −2.9 | Change from Baseline in PASI Total Score, Mean (100 mg BID, Week 2): 6.07 | Change from Baseline in PASI Total Score, Median (100 mg BID, Week 2): −4.85 | Change from Baseline in PASI Total Score, LSMean (100 mg BID, Week 2): −5.7 | Change from Baseline in PASI Total Score, Mean (100 mg BID, Week 4): −10.71 | Change from Baseline in PASI Total Score, Median (100 mg BID, Week 4): −9.70 | Change from Baseline in PASI Total Score, LSMean (100 mg BID, Week 4): −10.0 | Change from Baseline in PASI Total Score, Mean (100 mg BID, Week 8): −14.66 | Change from Baseline in PASI Total Score, Median (100 mg BID, Week 8): −13.30 | Change from Baseline in PASI Total Score, LSMean (100 mg BID, Week 8): −13.8 | Change from Baseline in PASI Total Score, Mean (100 mg BID, Week 12): −16.77 | Change from Baseline in PASI Total Score, Median (100 mg BID, Week 12): −17.05 | Change from Baseline in PASI Total Score, LSMean (100 mg BID, Week 12): −15.9 | Change from Baseline in PASI Total Score, Mean (100 mg BID, Week 16): −17.44 | Change from Baseline in PASI Total Score, Median (100 mg BID, Week 16): −17.40 | Change from Baseline in PASI Total Score, LSMean (100 mg BID, Week 16): −16.5 | Change from Baseline in PASI Total Score, Mean (100 mg BID, Week 20): −17.83 | Change from Baseline in PASI Total Score, Median (100 mg BID, Week 20): −17.40 | Change from Baseline in PASI Total Score, LSMean (100 mg BID, Week 20): −17.0 | Change from Baseline in PASI Total Score, Mean (100 mg BID, Week 24): −17.99 | Change from Baseline in PASI Total Score, Median (100 mg BID, Week 24): −17.80 | Change from Baseline in PASI Total Score, LSMean (100 mg BID, Week 24): −17.1 | Change from Baseline in PASI Total Score, Mean (100 mg BID, Week 28): −17.96 | Change from Baseline in PASI Total Score, Median (100 mg BID, Week 28): −17.75 | Change from Baseline in PASI Total Score, LSMean (100 mg BID, Week 28): −17.2 | Change from Baseline in PASI Total Score, Mean (100 mg BID, Week 32): −18.37 | Change from Baseline in PASI Total Score, Median (100 mg BID, Week 32): −18.20 | Change from Baseline in PASI Total Score, LSMean (100 mg BID, Week 32): −17.3 | Change from Baseline in PASI Total Score, Mean (100 mg BID, Week 40): −18.30 | Change from Baseline in PASI Total Score, Median (100 mg BID, Week 40): −18.30 | Change from Baseline in PASI Total Score, LSMean (100 mg BID, Week 40): −17.4 | Change from Baseline in PASI Total Score, Mean (100 mg BID, Week 52): −18.46 | Change from Baseline in PASI Total Score, Median (100 mg BID, Week 52): −18.60 | Subjects achieving PASI 75 (100 mg BID, Week 52): 32 (76.2%) | Change from Baseline in PASI Total Score, LSMean (100 mg BID, Week 52): −17.4 | Subjects achieving ≥75% Improvement at Week 52 (PASI 75 Response) (100 mg BID, Week 52, non-responder imputation): 32 (76.2%) | Change from Baseline in PASI Total Score, Mean (100 mg QD, Week 1): −2.60 | Change from Baseline in PASI Total Score, Median (100 mg QD, Week 1): −1.10 | Change from Baseline in PASI Total Score, LSMean (100 mg QD, Week 1): −2.8 | Change from Baseline in PASI Total Score, Mean (100 mg QD, Week 2): −5.13 | Change from Baseline in PASI Total Score, Median (100 mg QD, Week 2): −3.25 | Change from Baseline in PASI Total Score, LSMean (100 mg QD, Week 2): −5.3 | Change from Baseline in PASI Total Score, Mean (100 mg QD, Week 4): −8.39 | Change from Baseline in PASI Total Score, Median (100 mg QD, Week 4): −7.30 | Change from Baseline in PASI Total Score, LSMean (100 mg QD, Week 4): −8.7 | Change from Baseline in PASI Total Score, Mean (100 mg QD, Week 8): −12.04 | Change from Baseline in PASI Total Score, Median (100 mg QD, Week 8): −11.30 | Change from Baseline in PASI Total Score, LSMean (100 mg QD, Week 8): −12.5 | Change from Baseline in PASI Total Score, Mean (100 mg QD, Week 12): −13.70 | Change from Baseline in PASI Total Score, Median (100 mg QD, Week 12): −13.60 | Change from Baseline in PASI Total Score, LSMean (100 mg QD, Week 12): −14.0 | Change from Baseline in PASI Total Score, Mean (100 mg QD, Week 16): −13.99 | Change from Baseline in PASI Total Score, Median (100 mg QD, Week 16): −14.75 | Change from Baseline in PASI Total Score, LSMean (100 mg QD, Week 16): −14.4 | Change from Baseline in PASI Total Score, Mean (100 mg QD, Week 20): −14.57 | Change from Baseline in PASI Total Score, Median (100 mg QD, Week 20): −14.10 | Change from Baseline in PASI Total Score, LSMean (100 mg QD, Week 20): −15.1 | Change from Baseline in PASI Total Score, Mean (100 mg QD, Week 24): −15.27 | Change from Baseline in PASI Total Score, Median (100 mg QD, Week 24): −14.90 | Change from Baseline in PASI Total Score, LSMean (100 mg QD, Week 24): −15.6 | Change from Baseline in PASI Total Score, Mean (100 mg QD, Week 28): −16.11 | Change from Baseline in PASI Total Score, Median (100 mg QD, Week 28): −15.00 | Change from Baseline in PASI Total Score, LSMean (100 mg QD, Week 28): −15.8 | Change from Baseline in PASI Total Score, Mean (100 mg QD, Week 32): −16.21 | Change from Baseline in PASI Total Score, Median (100 mg QD, Week 32): −15.10 | Change from Baseline in PASI Total Score, LSMean (100 mg QD, Week 32): −16.2 | Change from Baseline in PASI Total Score, Mean (100 mg QD, Week 40): −15.95 | Change from Baseline in PASI Total Score, Median (100 mg QD, Week 40): −15.00 | Change from Baseline in PASI Total Score, LSMean (100 mg QD, Week 40): −15.7 | Change from Baseline in PASI Total Score, Mean (100 mg QD, Week 52): −15.81 | Change from Baseline in PASI Total Score, Median (100 mg QD, Week 52): −15.00
